The test system of data set [1] is C. difficile ATCC 9689. The data set can be described thus: MIC by broth dilution method (CLSI M11-A7). Format: cell-based. The following applies: Clostridioides difficile, ATCC9689, read-out: Sensitivity of C. difficile (MIC). On the technique in general: Broth dilution looks for growth in wells or tubes with falling amounts of substance.
Data set [2] concerns clinically isolated strain LCN 001. The experiment in a line: MIC by broth dilution method (CLSI M11-A7). Format: cell-based. The conditions noted are these: Clostridioides difficile, LCN001, read-out: Sensitivity of C. difficile (MIC).
The test system of data set [3] is Reduced-sensitivity strain to Vancomycin C. difficile LCN 0012. The experiment in a line: MIC by broth dilution method (CLSI M11-A7). Format: cell-based. The following applies: Clostridioides difficile.
Data set [4] relates to Reduced-sensitivity strain to Metronidazole C. difficile LCN 0048. The data set can be described thus: MIC by broth dilution method (CLSI M11-A7). Format: cell-based. The following applies: Clostridioides difficile.
Data set [5] has as its system Clindamycin-resistant strain C. difficile LCN 0027. The data set can be described thus: MIC by broth dilution method (CLSI M11-A7). The data set is classed as cell-based. The conditions noted are these: Clostridioides difficile, read-out: Sensitivity of C. difficile (MIC).
The subject of data set [6] is Erythrocin-resistant strain C. difficile LCN 0081. The data set can be described thus: MIC by broth dilution method (CLSI M11-A7). The data set is classed as cell-based. The conditions noted are these: Clostridioides difficile, read-out: Sensitivity of C. difficile (MIC).
Data set [7] can be described thus: Pharmacokinetics of thiopeptcin after oral (intragastric) administration, plasma by LC-MS/MS. The data set is classed as in vivo. The following applies: after intragastric administration in rats, all doses and time points. On the procedure:
30 μl of blood or urine sample was added into 90 μl of methanol containing 5 ng/ml verapamil. After vortexing for 3 min and centrifuging at 14,000 rpm for 5 min, 80 μl of supernatant was taken for LC-MS/MS analysis.
Conditions for LC were as follows: • Column: Waters Symmetry 300 C18 3.5 μm 2.1*100 mm; • Mobile phase A: 10 mM ammonium acetate+0.02% aqueous ammonia solution; mobile phase B: methanol; • Duration of analysis: 5.2 min; injection volume: 5 μL; column temperature: 25° C.; gradient elution:
Conditions for MS/MS analysis were as follows: • Mass Spectrometer: Positive Ion Mode (Agilent 6460B) • Detection of ion pairs: Thiopeptcin: 1437.3-172.0, fragment=135, CE=22; • Verapamil (internal standard): 455.2→165.1, fragment=135, CE=25; • Mass spectrometry parameters: gas temp at 350 ° C.; gas flow at 10 L/min; nebulizer of 40 psi; sheath gas flow at 10 L/min and sheath gas heater at 400° C.
Preparation of thiopeptcin: Certain amount of thiopeptcin was dissolved in a mixed solvent of pH 5.0 containing 10% PEG400, 1% Tween 80 and 5 mg/ml citric acid. The solution was shaken to be clear for intragastric administration.
Male rats were divided into 4 groups with high, medium, and low doses according to experimental purposes. The high dose group was 50 mg/kg, the middle dose group was 25 mg/kg, the low-1 dose group was 5 mg/kg and the low-2 dose group was 1 mg/kg. […]

Data on two molecules can be found in US20190231844A1, “ORAL APPLICATION OF THIOPEPTCIN” (NANJING BIOTICA PHARMACEUTICAL COMPANY, priority 2015, published 2019).

≈ marks a conversion by molar mass, not a printed value.

With `C=C(NC(=O)c1csc(-c2nc3c(cc2O)-c2nc(cs2)C(=O)N[C@@H]([C@@H](C)O)C(=O)N/C(=C(\C)OC)c2nc(cs2)C(=O)N[C@@H]2c4nc(cs4)C(=O)N[C@@H](COC(=O)c4c5c6c(cccc6n4O)COC(=O)[C@@H](OC4C[C@](C)(O)[C@H](N(C)C)[C@H](C)O4)C2OC5)c2nc-3cs2)n1)C(N)=O` (stereo partly shown) [Thiopeptcin], the MIC (usually the least concentration at which growth counts as inhibited) was 0.005 µg/mL (≈ 0.00348 µM) in data set [1]; 0.025 µg/mL (≈ 0.0174 µM) in data set [2]; 0.025 to 0.05 µg/mL (≈ 0.0174 to 0.0348 µM) in data set [3]; 0.005 to 0.01 µg/mL (≈ 0.00348 to 0.00696 µM) in data set [4]; 0.025 µg/mL (≈ 0.0174 µM) in data set [5]; 0.005 µg/mL (≈ 0.00348 µM) in data set [6]. Further, in data set [7], the “plasma concentration of thiopeptcin (below limit of quantification)” value is below 1 ng/mL.
As for `CN[C@H](CC(C)C)C(=O)N[C@H]1C(=O)N[C@@H](CC(N)=O)C(=O)N[C@H]2C(=O)N[C@H]3C(=O)N[C@H](C(=O)N[C@H](C(=O)O)c4cc(O)cc(O)c4-c4cc3ccc4O)[C@H](O)c3ccc(c(Cl)c3)Oc3cc2cc(c3O[C@@H]2O[C@H](CO)[C@@H](O)[C@H](O)[C@H]2O[C@H]2C[C@](C)(N)[C@H](O)[C@H](C)O2)Oc2ccc(cc2Cl)[C@H]1O` [Vancomycin, reference compound], the MIC in data set [1] is 0.25 µg/mL (≈ 0.173 µM); in data set [2] it was 0.5 µg/mL (≈ 0.345 µM); in data set [3], 4 to 8 µg/mL (≈ 2.76 to 5.52 µM); in data set [4] it was 0.8 to 3 µg/mL (≈ 0.552 to 2.07 µM); in data set [5], 1.5 µg/mL (≈ 1.04 µM); in data set [6] it was 1.5 µg/mL (≈ 1.04 µM).
